Protocol: A pH 7.4 D2O solution was made by first freeze-drying a 50 mM sodium phosphate aqueous solution containing 150 mM NaCl and 20 mM EDTA at pH 7.4 and reconstituting to the same volume with deuterium oxide. Acetone was added as a standard to the buffer at 1.0 μl per 3 ml. Samples of the PEG reagents were dissolved at 1 μmol in 0.75 ml of the buffer and analysed after 4 h and after 25.5 h by 400 MHz NMR spectroscopy. The stability of the PEG maleimide samples was determined by comparing the integral at 6.86 ppm after normalising using the integral for the acetone standard at 2.17 ppm.

## α-methoxy-ω-ethyl-maleinimide polyethylene glycol [PEG maleimide sample 2]
  % Degradation over 21.5 h at pH 7.4: 19%

Source: patent publication US9896412B2, “Reagents and method for conjugating biological molecules” (POLYTHERICS LIMITED, priority 2008, dated 2018)
